We go through ten compounds from US20250122191A1, “COMPOUNDS AS BCL-2 INHIBITORS” (Fochon Biosciences, Ltd, priority 2021, published 2025).

Data set [1] deals with RS4;11-BCL-2 G101V cells. In words: Cell proliferation assay (MTS), RS4;11-BCL-2 G101V engineered cells. The data set is classed as cell-based. As to conditions: Homo sapiens, 120 h, read-out: RS4, 11 BCL2-G101V IC50. A digest of the protocol:
(§1)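 RS4;11 cells stably overexpressing mutant BCL-2 were seeded and pre-incubated 4 h (G101V, F104L) or 24 h (D103E, D103Y), then exposed to compound at 1.5–10000 nM for 120 h (G101V, F104L) or 72 h (D103E, D103Y) at 37 °C. Viability was read by MTS absorbance at 490 nm after 2 h; IC50 fitted.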

Data set [2] concerns RS4;11-BCL-2 F104L cells. In words: Cell proliferation assay (MTS), RS4;11-BCL-2 F104L engineered cells. The data set is classed as cell-based. The following applies: Homo sapiens, 120 h, read-out: RS4, 11 BCL2-F104L IC50. The method, boiled down:
as §1

For data set [3], the system named is Toledo cells. In words: Cell proliferation assay (MTS), Toledo cells. The data set is classed as cell-based. The following applies: Homo sapiens, 72 h. A digest of the protocol:
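Toledo cells (RPMI-1640, 10% FBS) seeded at 30000 cells/well, rested 4 h, then exposed 72 h at 37 °C, 5% CO2 to compound at nine final concentrations, 1.5–10000 nM. Viability by MTS (2 h), absorbance at 490 nm. IC50 from the concentration-response.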

Data set [4] can be described thus: Pharmacokinetics assay in rats. As to conditions: male Sprague-Dawley rats, po, 5 mg/kg, plasma; for AUC(0-t) / half-life / Cmax: rat; for Cmax: read-out: Cmax/C0. The data set is classed as in vivo. Here is the method: The purpose of this study was to determine the pharmacokinetics of Examples in male Sprague-Dawley rats (Supplied by Beijing Vital River Laboratory Animal Technology Co., Ltd.) following a single intravenous bolus injection at 1 mg/kg and oral gavage (PO) administration at 5 mg/kg.
Animals in Group 1 were administered with Examples by single intravenous bolus injection at 1 mg/kg, which was formulated in 10% DMSO (Sigma, Batch #LPCOS181): 60% PEG400 (Sigma, Batch #MKCH6281): 30% water, pH 5-6 at 1 mg/mL as a solution. Animals in Group 2 were administered with Examples by single oral gavage (PO) administration at 5 mg/kg, which was formulated in 10% DMSO (Sigma, Batch #BCCD6641): 60% PEG400 (Sigma, Batch #MKCL4921): 30% water at 1 mg/mL as a solution. Blood samples were collected at 0.083, 0.25, 0.5, 1, 2, 4, 8, 12 and 24 hours post-dose. Concentrations of Examples in plasma were determined by LC/MS/MS (LC: Waters UPLC; MS: Triple Quad 6500 plus).

Data set [5] relates to RS4;11-BCL-2 D103E cells. In words: Cell proliferation assay (MTS), RS4;11-BCL-2 D103E engineered cells. The following applies: Homo sapiens, 72 h, read-out: RS4, 11 BCL2-D103E IC50. In kind it is cell-based. The method, boiled down:
as §1

What is called IC50 is the concentration needed to halve the response being measured. A word on the AUC(0-t): it is the area under the concentration-time curve up to a stated or last time point. As usually defined, the half-life is the time needed for the level to fall by half in the phase considered. Higher therefore signals slow loss. Consider `CCOc1nc2[nH]cc(F)c2cc1Oc1cc(N2CCC3(CC2)CC(N2CCN(Cc4ccc(F)c(F)c4)C[C@H]2c2ccccc2C(C)C)C3)ccc1C(=O)NS(=O)(=O)c1cnc(NC[C@H]2CC[C@](C)(O)CC2)c([N+](=O)[O-])c1` [Example 4, 4-(2-((R)-4-(3,4-difluorobenzyl)-2-(2-isopropylphenyl)piperazin-1-yl)-7-azaspiro[3.5]nonan-7-yl)-2-((6-ethoxy-3-fluoro-1H-pyrrolo[2,3-b]pyridin-5-yl)oxy)-N-((6-((((1r,4r)-4-hydroxy-4-methylcyclohexyl)methyl)amino)-5-nitropyridin-3-yl)sulfonyl)benzamide], for which the IC50 in data set [1], in data set [2] and in data set [3] was 1 nM in each case. In data set [4], this compound displayed an AUC(0-t) of 1740 ng·h/mL. Further, the half-life in data set [4] is 9.57 h. Besides, in data set [4], the Cmax turned out to be 176 ng/mL.
Take `COc1nc2[nH]cc(F)c2cc1Oc1cc(N2CCC3(CC2)CC(N2CCN(Cc4ccc(F)c(F)c4)C[C@H]2c2ccccc2C(C)C)C3)ccc1C(=O)NS(=O)(=O)c1cnc(NC[C@H]2CC[C@](C)(O)CC2)c([N+](=O)[O-])c1` [Example 3, 4-(2-((R)-4-(3,4-difluorobenzyl)-2-(2-isopropylphenyl)piperazin-1-yl)-7-azaspiro[3.5]nonan-7-yl)-2-((3-fluoro-6-methoxy-1H-pyrrolo[2,3-b]pyridin-5-yl)oxy)-N-((6-((((1r,4r)-4-hydroxy-4-methylcyclohexyl)methyl)amino)-5-nitropyridin-3-yl)sulfonyl)benzamide]: in data set [1], the IC50 stood at 1 nM. The IC50 in data set [2] stood at 1 nM. The compound further returned a half-maximal inhibitory concentration (IC50) in data set [3] of 1 nM. Besides, in data set [4], the exposure AUC(0-t) is 4650 ng·h/mL, the half-life is 9.21 h and the Cmax amounted to 382 ng/mL.
On to `COc1ccc(CN2CCN(C3CC4(CCN(c5ccc(C(=O)NS(=O)(=O)c6cnc(NC[C@H]7CC[C@](C)(O)CC7)c([N+](=O)[O-])c6)c(Oc6cc7c(F)c[nH]c7nc6OC)c5)CC4)C3)[C@H](c3ccccc3C(C)C)C2)cc1` [Example 1, 2-((3 fluoro-6-methoxy-1H pyrrolo[2,3-b]pyridin-5 yl)oxy)-N-((6-((((1r, 4r)-4-hydroxy-4-methylcyclohexyl)methyl)amino)-5-nitropyridin-3-yl)sulfonyl)-4-(2-((R)-2-(2-isopropylphenyl)-4-(4-methoxybenzyl)piperazin-1-yl)-7-azaspiro[3.5]nonan-7-yl)benzamide], for which the IC50 was found to be 1 nM in data set [1], 1 nM in data set [2], 1 nM in data set [3] and 2 nM in data set [5]. In data set [4], the area under the curve AUC(0-t) is 3030 ng·h/mL. The compound further had a half-life in data set [4] of 9.02 h. For the same compound, the Cmax in data set [4] is 227 ng/mL.
`CC(C)c1ccccc1[C@@H]1CN(C)CCN1C1CC2(CCN(c3ccc(C(=O)NS(=O)(=O)c4cnc(NCC5CCC(C)(O)CC5)c([N+](=O)[O-])c4)c(Oc4cnc5[nH]ccc5c4)c3)CC2)C1` (stereo partly drawn) [Reference Compound 1, (R)-2-((1H-pyrrolo[2,3-b]pyridin-5-yl)oxy)-N-((6-(((4-hydroxy-4-methylcyclohexyl)methyl)amino)-S-nitropyridin-3-yl)sulfonyl)-4-(2-(2-(2-isopropylphenyl)-4-methylpiperazin-1-yl)-7-azaspiro[3.5]nonan-7-yl)benzamide, reference compound]: in data set [4], the AUClast is 128 ng·h/mL, the Cmax/C0 was determined as 49.9 ng/mL and the T1/2 was 1.16 h.
Take `COc1nc2[nH]cc(F)c2cc1Oc1cc(N2CCC3(CC2)CC(N2CCN(Cc4ccc(F)cc4)C[C@H]2c2ccccc2C(C)C)C3)ccc1C(=O)NS(=O)(=O)c1cnc(NC[C@H]2CC[C@](C)(O)CC2)c([N+](=O)[O-])c1` [Example 233, 2-((3-fluoro-6-methoxy-1H-pyrrolo[2,3-b]pyridin-5-yl)oxy)-4-(2-((R)-4-(4-fluorobenzyl)-2-(2-isopropylphenyl)piperazin-1-yl)-7-azaspiro[3.5]nonan-7-yl)-N-((6-((((1r,4r)-4-hydroxy-4-methylcyclohexyl)methyl)amino)-5-nitropyridin-3-yl)sulfonyl)benzamide]: the 50% inhibitory concentration (IC50) in data set [1] was 1 nM. The IC50 in data set [2] was 1 nM. Further, in data set [3], the midpoint of inhibition, the IC50, lay at 1 nM. Moreover, in data set [4], the exposure AUC(0-t) is 3920 ng·h/mL, the half-life was 7.36 h and the Cmax was 439 ng/mL.
Turning to `COc1nc2[nH]cc(F)c2cc1Oc1cc(N2CCC3(CC2)CC(N2CCN(Cc4ccc(Cl)cc4)C[C@H]2c2ccccc2C(C)C)C3)ccc1C(=O)NS(=O)(=O)c1cnc(NC[C@H]2CC[C@](C)(O)CC2)c([N+](=O)[O-])c1` [Example 230, 4-(2-((R)-4-(4-chlorobenzyl)-2-(2-isopropylphenyl)piperazin-1-yl)-7-azaspiro[3.5]nonan-7-yl)-2-((3-fluoro-6-methoxy-1H-pyrrolo[2,3-b]pyridin-5-yl)oxy)-N-((6-((((1r,4r)-4-hydroxy-4-methylcyclohexyl)methyl)amino)-5-nitropyridin-3-yl)sulfonyl)benzamide], the IC50 in data set [1], in data set [2] and in data set [3] was 1 nM in each case. The compound also registered an AUC(0-t) in data set [4] of 3750 ng·h/mL. Moreover, the half-life in data set [4] is 10.2 h. In data set [4], the Cmax was found to be 329 ng/mL.
As for `CCOc1nc2[nH]cc(F)c2cc1Oc1cc(N2CCC3(CC2)CC(N2CCN(Cc4ccc(OC)cc4)C[C@H]2c2ccccc2C(C)C)C3)ccc1C(=O)NS(=O)(=O)c1cnc(NC[C@H]2CC[C@](C)(O)CC2)c([N+](=O)[O-])c1` [Example 2, 2-((6-ethoxy-3-fluoro-1H-pyrrolo[2,3-b]pyridin-5-yl)oxy)-N-((6-((((1r,4r)-4-hydroxy-4-methylcyclohexyl)methyl)amino)-5-nitropyridin-3-yl)sulfonyl)-4-(2-((R)-2-(2-isopropylphenyl)-4-(4-methoxybenzyl)piperazin-1-yl)-7-azaspiro[3.5]nonan-7-yl)benzamide], the IC50 in data set [1] amounted to 1 nM. 1 nM corresponded to half-maximal inhibition in data set [3] (IC50). In data set [4], the AUC(0-t) came to 1920 ng·h/mL, the half-life is 7.62 h and the Cmax worked out at 166 ng/mL. The half-inhibitory concentration (IC50) in data set [5] came out at 3 nM.
Regarding `COc1ccc(CN2CCN(C3CC4(CCN(c5ccc(C(=O)NS(=O)(=O)c6cnc(NC[C@H]7CC[C@](C)(O)CC7)c([N+](=O)[O-])c6)c(Oc6cnc7[nH]cc(F)c7c6)c5)CC4)C3)[C@H](c3ccccc3C(C)C)C2)cc1` [Example 71, 2-((3-fluoro-1H-pyrrolo[2,3-b]pyridin-5-yl)oxy)-N-((6-((((1r,4r)-4-hydroxy-4-methylcyclohexyl)methyl)amino)-5-nitropyridin-3-yl)sulfonyl)-4-(2-((R)-2-(2-isopropylphenyl)-4-(4-methoxybenzyl)piperazin-1-yl)-7-azaspiro[3.5]nonan-7-yl)benzamide], the IC50 in data set [1], in data set [2], in data set [3] and in data set [5] was 1 nM each time.
With `COc1nc2[nH]cc(F)c2cc1Oc1cc(N2CCC3(CC2)CC(N2CCN(Cc4ccc(OC)c5oc(C)nc45)C[C@H]2c2ccccc2C(C)C)C3)ccc1C(=O)NS(=O)(=O)c1cnc(NC[C@H]2CC[C@](C)(O)CC2)c([N+](=O)[O-])c1` [Example 245, 2-((3-fluoro-6-methoxy-1H-pyrrolo[2,3-b]pyridin-5-yl)oxy)-N-((6-((((1r,4r)-4-hydroxy-4-methylcyclohexyl)methyl)amino)-5-nitropyridin-3-yl)sulfonyl)-4-(2-((R)-2-(2-isopropylphenyl)-4-((7-methoxy-2-methylbenzo[d]oxazol-4-yl)methyl)piperazin-1-yl)-7-azaspiro[3.5]nonan-7-yl)benzamide], the IC50 in data set [1], in data set [2], in data set [3] and in data set [5] was 1 nM in each case.
`COc1cc(CN2CCN(C3CC4(CCN(c5ccc(C(=O)NS(=O)(=O)c6cnc(NC[C@H]7CC[C@](C)(O)CC7)c([N+](=O)[O-])c6)c(Oc6cc7c(F)c[nH]c7nc6OC)c5)CC4)C3)[C@H](c3ccccc3C(C)C)C2)ccc1C1CC1` [Example 5, 4-(2-((R)-4-(4-cyclopropyl-3-methoxybenzyl)-2-(2-isopropylphenyl)piperazin-1-yl)-7-azaspiro[3.5]nonan-7-yl)-2-((3-fluoro-6-methoxy-1H-pyrrolo[2,3-b]pyridin-5-yl)oxy)-N-((6-((((1r,4r)-4-hydroxy-4-methylcyclohexyl)methyl)amino)-5-nitropyridin-3-yl)sulfonyl)benzamide]: the IC50 in data set [1] turned out to be 1 nM. The 50% inhibitory concentration (IC50) in data set [2] turned out to be 1 nM. This compound gave a half-maximal inhibitory concentration (IC50) in data set [3] of 1 nM. In addition, in data set [4], the area under the curve AUC(0-t) is 2260 ng·h/mL, the half-life is 24.4 h and the Cmax stood at 37.1 ng/mL.
